Source: ChEMBL document CHEMBL5126616, “Therapeutic and Effective CURE-PRO Molecules for E3 Ligase-Mediated Targeted Protein Degradation” (ACS Med Chem Lett, 2022)

target: T1, Protein cereblon/Bromodomain-containing protein 4 (Homo sapiens) (UniProt O60885+Q96SW2); experiment: PROTAC activity at CRBN/BRD4 (unknown origin) assessed as BRD4 degradation in presence of (1S,4R,5R,6S)-N-((2-(2,6-dioxopiperidin-3-yl)-1,3-dioxoisoindolin-4-yl)methyl)-5,6- dihydroxy bicyclo[2.2.1]heptane-2-carboxamide (CRB-N8066) by Western blot analysis; assay type: protein assay; parameters: concentration or dose not given beside the values
T1 sequence (Q96SW2 whole entry, looked up, other chains not shown): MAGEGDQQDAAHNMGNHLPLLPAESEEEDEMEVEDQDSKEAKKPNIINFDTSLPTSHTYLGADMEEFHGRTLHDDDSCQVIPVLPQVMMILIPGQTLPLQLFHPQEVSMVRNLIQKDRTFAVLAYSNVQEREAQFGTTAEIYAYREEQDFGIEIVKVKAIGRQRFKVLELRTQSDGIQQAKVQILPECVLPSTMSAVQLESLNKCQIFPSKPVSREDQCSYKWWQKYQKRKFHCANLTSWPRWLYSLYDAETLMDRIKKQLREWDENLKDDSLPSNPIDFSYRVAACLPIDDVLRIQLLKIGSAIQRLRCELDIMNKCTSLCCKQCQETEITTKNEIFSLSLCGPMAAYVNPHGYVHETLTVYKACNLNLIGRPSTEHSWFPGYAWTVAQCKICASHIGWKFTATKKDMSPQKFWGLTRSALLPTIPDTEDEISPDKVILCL

**Q.** How did the Activity turn out when `COc1ccc2c(c1)C(c1ccc(Cl)cc1)=N[C@@H](CC(=O)NCCCCCNC(=O)c1cccc(B(O)O)c1)c1nnc(C)n1-2` was run?
**A.** 30%

**Q.** With `COc1ccc2c(c1)C(c1ccc(Cl)cc1)=N[C@@H](CC(=O)NCCCNC(=O)c1cccc(B(O)O)c1)c1nnc(C)n1-2` as the molecule, how does the Activity read?
**A.** 30%

**Q.** With `CCNC(=O)C[C@@H]1N=C(c2ccc(Cl)cc2)c2cc(OCCCCC(=O)Nc3cccc(B(O)O)c3)ccc2-n2c(C)nnc21` as the molecule, how does the Activity read?
**A.** 30%

**Q.** `COc1ccc2c(c1)C(c1ccc(Cl)cc1)=N[C@@H](CC(=O)NCCCCCNC(=O)c1ccc(B(O)O)cc1)c1nnc(C)n1-2` was tested. Which Activity did it give?
**A.** 30%

**Q.** `COc1ccc2c(c1)C(c1ccc(Cl)cc1)=N[C@@H](CC(=O)NCCCCNC(=O)c1ccc(B(O)O)cc1)c1nnc(C)n1-2` was tested. Which Activity did it give?
**A.** 30%

**Q.** Which Activity does the source give for `COc1ccc2c(c1)C(c1ccc(Cl)cc1)=N[C@@H](CC(=O)NCCNC(=O)/C=C/c1cccc(B(O)O)c1)c1nnc(C)n1-2` here?
**A.** 30%

**Q.** Which Activity does the source give for `COc1ccc2c(c1)C(c1ccc(Cl)cc1)=N[C@@H](CC(=O)NCCNC(=O)/C=C/c1ccc(B(O)O)cc1)c1nnc(C)n1-2` here?
**A.** 30%

target: T1, Protein cereblon/Bromodomain-containing protein 4 (Homo sapiens); experiment: PROTAC activity at CRBN/BRD4 (unknown origin) assessed as BRD4 degradation in presence of N-((2-(2,6-dioxopiperidin-3-yl)-1,3-dioxoisoindolin-4-yl)methyl)-3,4- dihydroxy benzamide (CRB-N8046) by Western blot analysis; assay type: protein assay; parameters: concentration or dose not given beside the values

**Q.** With `COc1ccc2c(c1)C(c1ccc(Cl)cc1)=N[C@@H](CC(=O)NCCCCCNC(=O)c1cccc(B(O)O)c1)c1nnc(C)n1-2` as the molecule, how does the Activity read?
**A.** 30%

**Q.** Which Activity does the source give for `COc1ccc2c(c1)C(c1ccc(Cl)cc1)=N[C@@H](CC(=O)NCCCNC(=O)c1cccc(B(O)O)c1)c1nnc(C)n1-2` here?
**A.** 30%

**Q.** `CCNC(=O)C[C@@H]1N=C(c2ccc(Cl)cc2)c2cc(OCCCCC(=O)Nc3cccc(B(O)O)c3)ccc2-n2c(C)nnc21` was tested. Which Activity did it give?
**A.** 30%

**Q.** `COc1ccc2c(c1)C(c1ccc(Cl)cc1)=N[C@@H](CC(=O)NCc1cccc(B(O)O)c1)c1nnc(C)n1-2` was tested. Which Activity did it give?
**A.** 30%

**Q.** For `COc1ccc2c(c1)C(c1ccc(Cl)cc1)=N[C@@H](CC(=O)NCCNC(=O)/C=C/c1ccc(B(O)O)cc1)c1nnc(C)n1-2`, which Activity is on record?
**A.** 30%

target: T1, Protein cereblon/Bromodomain-containing protein 4 (Homo sapiens); experiment: PROTAC activity at CRBN/BRD4 (unknown origin) assessed as BRD4 degradation in presence of N-((2-(2,6-dioxopiperidin-3-yl)-1,3-dioxoisoindolin-4-yl)methyl)-2,3- dihydroxy benzamide (CRB-N8047) by Western blot analysis; assay type: protein assay; parameters: concentration or dose not given beside the values

**Q.** `COc1ccc2c(c1)C(c1ccc(Cl)cc1)=N[C@@H](CC(=O)NCCCNC(=O)c1cccc(B(O)O)c1)c1nnc(C)n1-2` was tested. Which Activity did it give?
**A.** 30%

**Q.** For `COc1ccc2c(c1)C(c1ccc(Cl)cc1)=N[C@@H](CC(=O)NCc1cccc(B(O)O)c1)c1nnc(C)n1-2`, which Activity is on record?
**A.** 30%

**Q.** Which Activity does the source give for `COc1ccc2c(c1)C(c1ccc(Cl)cc1)=N[C@@H](CC(=O)NCCCCNC(=O)c1ccc(B(O)O)cc1)c1nnc(C)n1-2` here?
**A.** 30%

**Q.** How did the Activity turn out when `COc1ccc2c(c1)C(c1ccc(Cl)cc1)=N[C@@H](CC(=O)NCc1ccc(B(O)O)cc1)c1nnc(C)n1-2` was run?
**A.** 30%

**Q.** With `COc1ccc2c(c1)C(c1ccc(Cl)cc1)=N[C@@H](CC(=O)NCCNC(=O)/C=C/c1cccc(B(O)O)c1)c1nnc(C)n1-2` as the molecule, how does the Activity read?
**A.** 30%

**Q.** With `COc1ccc2c(c1)C(c1ccc(Cl)cc1)=N[C@@H](CC(=O)NCCNC(=O)/C=C/c1ccc(B(O)O)cc1)c1nnc(C)n1-2` as the molecule, how does the Activity read?
**A.** 30%

**Q.** `COc1ccc2c(c1)C(c1ccc(Cl)cc1)=N[C@@H](CC(=O)NCCc1ccc(B(O)O)cc1)c1nnc(C)n1-2` was tested. Which Activity did it give?
**A.** 30%
